Read-outs that look alike come from different tables or passages of the source. Marks after values point to notes of the source that are not given here.
Key:
[1] = Single dose bioavailability study in the non-fasted state, 4 mg immediate release carbinoxamine maleate tablet; format: in vivo; parameters: Plasma concentration of carbinoxamine: unit not given here; settings: nonfasted; for AUC(0-t) / Cmax / MRT / Tmax / half-life / AUC: human, plasma, po, 4 mg; for AUC: read-out: AUC0-
Protocol: A single dose bioavailability study was also undertaken in the non-fasted state using 4 mg immediate release carbinoxamine maleate tablets formulated in an immediate release format. Samples were taken over a forty eight hours period after administration of the drug with heparinized tubes. Breakfast was ingested thirty minutes before administration.
FIG. 2 is a mean plasma concentration-time profile of carbinoxamine after administering the 4 mg carbinoxamine maleate immediate release tablet in the non-fasted state from time 0 to time 48 hours. Graph (A) is the linear ordinate; graph (B) is the log-linear ordinate. FIG. 3 is an overlay of mean plasma concentration-time profiles of carbinoxamine administered under nonfasted and fasted conditions from time 0 to 48 hours, as reported in Example 3. Graph (A) is an overlay in the linear ordinates for the two conditions; graph (B) is an overlay in the log-linear ordinates for the two conditions.

[2] = cited from earlier work; for AUC(0-t): AUC0-24
[3] = Literature 1, Aqueous solution 8 mg
[4] = Literature 1, Retard capsule 8 mg

Compound: CN(C)CCOC(c1ccc(Cl)cc1)c1ccccn1 (centres unmarked) [carbinoxamine, 2-[(4-chlorophenyl)-2-pyridinylmethoxy]-N,N-dimethylethanamine (Z)-2-butenedioate (1:1)]
- AUC(0-t) ([1]; Mean): 212 ng·h/mL
- Cmax ([1]; Mean): 12.6 ng/mL
- MRT ([1]; Mean): 26.9 h
- Tmax ([1]; Mean): 2.67 h
- half-life ([1]; Mean): 19 h
- AUC ([1]; Mean): 260 ng·h/mL
- AUC(0-t) ([1]; subject 101): 175 ng·h/mL
- Cmax ([1]; subject 101): 8.11 ng/mL
- MRT ([1]; subject 101): 25.6 h
- Tmax ([1]; subject 101): 4 h
- half-life ([1]; subject 101): 17.1 h
- AUC ([1]; subject 101): 206 ng·h/mL
- AUC(0-t) ([1]; subject 102): 292 ng·h/mL
- Cmax ([1]; subject 102): 18.9 ng/mL
- MRT ([1]; subject 102): 31.7 h
- Tmax ([1]; subject 102): 2 h
- half-life ([1]; subject 102): 22.9 h
- AUC ([1]; subject 102): 178 ng·h/mL
- AUC(0-t) ([1]; subject 103): 170 ng·h/mL
- Cmax ([1]; subject 103): 10.7 ng/mL
- MRT ([1]; subject 103): 23.4 h
- Tmax ([1]; subject 103): 2 h
- half-life ([1]; subject 103): 16.9 h
- AUC ([1]; subject 103): 196 ng·h/mL
- Plasma concentration of carbinoxamine ([1]; 0 h, subject 101T): blq
- Plasma concentration of carbinoxamine ([1]; 0 h, subject 102T): blq
- Plasma concentration of carbinoxamine ([1]; 0 h, subject 103T): blq
- Plasma concentration of carbinoxamine ([1]; 0.5 h, T-Mean): 1415.00
- Plasma concentration of carbinoxamine ([1]; 0.5 h, subject 101T): 1190.29
- Plasma concentration of carbinoxamine ([1]; 0.5 h, subject 102T): 1371.47
- Plasma concentration of carbinoxamine ([1]; 0.5 h, subject 103T): 1683.25
- Plasma concentration of carbinoxamine ([1]; 1 h, T-Mean): 9391.48
- Plasma concentration of carbinoxamine ([1]; 1 h, subject 101T): 5017.55
- Plasma concentration of carbinoxamine ([1]; 1 h, subject 102T): 15948.51
- Plasma concentration of carbinoxamine ([1]; 1 h, subject 103T): 7208.39
- Plasma concentration of carbinoxamine ([1]; 2 h, T-Mean): 12274.78
- Plasma concentration of carbinoxamine ([1]; 2 h, subject 101T): 7279.95
- Plasma concentration of carbinoxamine ([1]; 2 h, subject 102T): 18873.34
- Plasma concentration of carbinoxamine ([1]; 2 h, subject 103T): 10671.05
- Plasma concentration of carbinoxamine ([1]; 3 h, T-Mean): 10596.92
- Plasma concentration of carbinoxamine ([1]; 3 h, subject 101T): 7409.87
- Plasma concentration of carbinoxamine ([1]; 3 h, subject 102T): 14981.55
- Plasma concentration of carbinoxamine ([1]; 3 h, subject 103T): 9399.33
- Plasma concentration of carbinoxamine ([1]; 4 h, T-Mean): 9957.93
- Plasma concentration of carbinoxamine ([1]; 4 h, subject 101T): 8113.91
- Plasma concentration of carbinoxamine ([1]; 4 h, subject 102T): 12868.20
- Plasma concentration of carbinoxamine ([1]; 4 h, subject 103T): 8891.67
- Plasma concentration of carbinoxamine ([1]; 5 h, T-Mean): 9064.58
- Plasma concentration of carbinoxamine ([1]; 5 h, subject 101T): 7450.78
- Plasma concentration of carbinoxamine ([1]; 5 h, subject 102T): 11670.11
- Plasma concentration of carbinoxamine ([1]; 5 h, subject 103T): 8072.86
- Plasma concentration of carbinoxamine ([1]; 6 h, T-Mean): 8311.90
- Plasma concentration of carbinoxamine ([1]; 6 h, subject 101T): 7053.79
- Plasma concentration of carbinoxamine ([1]; 6 h, subject 102T): 10649.47
- Plasma concentration of carbinoxamine ([1]; 6 h, subject 103T): 7232.44
- Plasma concentration of carbinoxamine ([1]; 8 h, T-Mean): 7184.22
- Plasma concentration of carbinoxamine ([1]; 8 h, subject 101T): 6458.92
- Plasma concentration of carbinoxamine ([1]; 8 h, subject 102T): 8834.94
- Plasma concentration of carbinoxamine ([1]; 8 h, subject 103T): 6258.79
- Plasma concentration of carbinoxamine ([1]; 12 h, T-Mean): 5363.07
- Plasma concentration of carbinoxamine ([1]; 12 h, subject 101T): 4676.58
- Plasma concentration of carbinoxamine ([1]; 12 h, subject 102T): 7186.93
- Plasma concentration of carbinoxamine ([1]; 12 h, subject 103T): 4225.70
- Plasma concentration of carbinoxamine ([1]; 24 h, T-Mean): 3869.18
- Plasma concentration of carbinoxamine ([1]; 24 h, subject 101T): 3297.38
- Plasma concentration of carbinoxamine ([1]; 24 h, subject 102T): 5400.86
- Plasma concentration of carbinoxamine ([1]; 24 h, subject 103T): 2909.31
- Plasma concentration of carbinoxamine ([1]; 36 h, T-Mean): 2453.59
- Plasma concentration of carbinoxamine ([1]; 36 h, subject 101T): 2197.69
- Plasma concentration of carbinoxamine ([1]; 36 h, subject 102T): 3336.26
- Plasma concentration of carbinoxamine ([1]; 36 h, subject 103T): 1826.88
- Plasma concentration of carbinoxamine ([1]; 48 h, T-Mean): 1650.44
- Plasma concentration of carbinoxamine ([1]; 48 h, subject 101T): 1249.68
- Plasma concentration of carbinoxamine ([1]; 48 h, subject 102T): 2616.93
- Plasma concentration of carbinoxamine ([1]; 48 h, subject 103T): 1084.70
- Cmax ([2]; 8 mg aqueous solution): 24 ng/mL
- half-life ([2]; 8 mg aqueous solution): 10.6 h
- Cmax ([2]; 8 mg retard capsule): 16.9 ng/mL
- Tmax ([2]; 8 mg retard capsule): 8 h
- half-life ([2]; 8 mg retard capsule): 14.5 h
- AUC(0-t) [2, 3]: 386^b ng/ml * h
- Cmax [2, 3]: 24 ng/mL
- T1/2 [2, 3]: 10.6 h
- AUC(0-t) [2, 4]: 238^b ng/ml * h
- Cmax [2, 4]: 16.9 ng/mL
- T1/2 [2, 4]: 14.5 h

Source: patent publication US9339471B2, “Long acting dual release product containing carbinoxamine and pseudoephedrine” (E5 PHARMA, LLC, priority 2007, dated 2016)
